According to US9884063B2, “Amido-substituted azole compounds” (Bayer Pharma Aktiengesellschaft, priority 2014, dated 2018):

What was measured:
TNKS2 = target: T1, TNKS2 (Homo sapiens, UniProt Q9H2K2); assay: Modified TNKS2 Assay 2 (auto-parsylation, [3H]-NAD+ SPA); assay type: biochemical; conditions: 6 nM TNKS2, 96 well
T1 sequence (Q9H2K2 1-1166): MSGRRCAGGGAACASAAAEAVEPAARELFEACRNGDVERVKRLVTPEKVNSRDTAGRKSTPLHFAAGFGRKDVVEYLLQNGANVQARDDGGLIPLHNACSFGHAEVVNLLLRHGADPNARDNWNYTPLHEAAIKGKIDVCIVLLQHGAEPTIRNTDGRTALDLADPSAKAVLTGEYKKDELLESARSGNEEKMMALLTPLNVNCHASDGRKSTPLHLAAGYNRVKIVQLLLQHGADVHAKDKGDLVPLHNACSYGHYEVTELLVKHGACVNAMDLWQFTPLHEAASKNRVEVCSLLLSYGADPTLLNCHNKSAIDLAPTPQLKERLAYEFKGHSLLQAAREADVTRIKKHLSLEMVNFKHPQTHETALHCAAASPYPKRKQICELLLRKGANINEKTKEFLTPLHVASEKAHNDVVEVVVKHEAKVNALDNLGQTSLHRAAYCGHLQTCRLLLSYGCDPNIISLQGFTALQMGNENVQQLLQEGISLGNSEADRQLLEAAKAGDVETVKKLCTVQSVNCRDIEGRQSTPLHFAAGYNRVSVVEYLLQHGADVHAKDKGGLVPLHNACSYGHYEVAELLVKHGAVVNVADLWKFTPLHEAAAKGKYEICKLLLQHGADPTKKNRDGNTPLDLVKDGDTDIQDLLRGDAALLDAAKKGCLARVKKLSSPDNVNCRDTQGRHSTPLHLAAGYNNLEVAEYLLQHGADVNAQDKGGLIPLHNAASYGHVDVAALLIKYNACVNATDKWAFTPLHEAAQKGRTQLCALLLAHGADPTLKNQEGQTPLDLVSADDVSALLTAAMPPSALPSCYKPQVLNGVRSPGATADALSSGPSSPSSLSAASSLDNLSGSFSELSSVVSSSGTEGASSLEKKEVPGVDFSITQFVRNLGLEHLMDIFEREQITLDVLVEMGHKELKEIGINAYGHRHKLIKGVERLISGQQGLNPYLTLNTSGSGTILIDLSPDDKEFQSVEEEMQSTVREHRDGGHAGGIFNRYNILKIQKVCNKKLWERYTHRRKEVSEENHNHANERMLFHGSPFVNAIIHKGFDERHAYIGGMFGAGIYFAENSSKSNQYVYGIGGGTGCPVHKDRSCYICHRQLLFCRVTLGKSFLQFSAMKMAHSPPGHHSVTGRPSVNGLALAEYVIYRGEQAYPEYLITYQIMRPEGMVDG

[1] = test system: wildtype Wnt signaling cascade; assay: HEK293 TOP Assay (Super TopFlash luciferase reporter, Wnt-3a stimulated); assay type: cell-based; conditions: Homo sapiens, HEK293, 16 h, HEK293 TOP reporter cell line, Wnt-3a at EC50, 16 hours incubation, compound dilution series 50 μM to 15 nM
In short: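 HEK293 cells stably carrying Super TopFlash (TOP) or FOP reporter, stimulated with recombinant human Wnt-3a (2500–5 ng/ml, two-fold steps). Both lines incubated in parallel with compound from 50 μM to 15 nM (3.16-fold) in CAFTY buffer pH 7.4 with 2 mM Ca2+ and 0.01% BSA; selectivity judged TOP vs FOP.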

With `O=C(Nc1ccc(NC(=O)c2nc[nH]c2C(=O)NCCF)cc1)c1ccccc1Cl` [Example 166, N^4-{4-[(2-chlorobenzoyl)amino]phenyl}-N^5-(2-fluoroethyl)-1H-imidazole-4,5-dicarboxamide] the IC50 (TNKS2) was 330 nM and the IC50 [1] was 530 nM.

For `CC1CCCCN1CCNC(=O)c1[nH]cnc1C(=O)Nc1ccc(NC(=O)c2ccc(F)cc2)cc1` (centres unmarked) [Example 169, N^4-{4-[(4-fluorobenzoyl)amino]phenyl}-N^5-[2-(2-methylpiperidin-1-yl)ethyl]-1H-imidazole-4,5-dicarboxamide], the IC50 (TNKS2) was 180 nM and the IC50 [1] was 800 nM.

For `CC(C)(CN1CCCCC1)NC(=O)c1[nH]cnc1C(=O)Nc1ccc(NC(=O)c2ccccc2Cl)cc1` [Example 171, N^4-{4-[(2-chlorobenzoyl)amino]phenyl}-N^5-[2-methyl-1-(piperidin-1-yl)propan-2-yl]-1H-imidazole-4,5-dicarboxamide], the IC50 (TNKS2) was 340 nM and the IC50 [1] was 670 nM.

In the case of `O=C(Nc1ccc(NC(=O)c2nc[nH]c2C(=O)NCCF)cc1)c1ccc(F)cc1Cl` [Example 173, N^4-{4-[(2-chloro-4-fluorobenzoyl)amino]phenyl}-N^5-(2-fluoroethyl)-1H-imidazole-4,5-dicarboxamide], the IC50 (TNKS2) is reported as 50 nM and the IC50 [1] is reported as 270 nM.

`O=C(Nc1ccc(NC(=O)c2nc[nH]c2C(=O)NCCN2CCCC2)cc1)c1ccc(F)cc1` [Example 176, N^4-{4-[(4-fluorobenzoyl)amino]phenyl}-N^5-[2-(pyrrolidin-1-yl)ethyl]-1H-imidazole-4,5-dicarboxamide] was tested, and the IC50 (TNKS2) was 60 nM and the IC50 [1] was 340 nM.

Work on `CC(C)(CN1CCOCC1)NC(=O)c1[nH]cnc1C(=O)Nc1ccc(NC(=O)c2ccc(F)cc2)cc1` [Example 180, N^4-{4-[(4-fluorobenzoyl)amino]phenyl}-N^5-[2-methyl-1-(morpholin-4-yl)propan-2-yl]-1H-imidazole-4,5-dicarboxamide] yielded an IC50 (TNKS2) of 6900 nM and an IC50 [1] of 5350 nM.

Compound `CC(CNC(=O)c1[nH]cnc1C(=O)Nc1ccc(NC(=O)c2ccccc2Cl)cc1)N1CCCCC1` (centres unmarked) [Example 182, N^4-{4-[(2-chlorobenzoyl)amino]phenyl}-N^5-[2-(piperidin-1-yl)propyl]-1H-imidazole-4,5-dicarboxamide] has an IC50 (TNKS2) of 10 nM and an IC50 [1] of 640 nM.

Compound `CC(C)(CN1CCCCC1)NC(=O)c1[nH]cnc1C(=O)Nc1ccc(NC(=O)c2ccc(F)cc2Cl)cc1` [Example 184, N^4-{4-[(2-chloro-4-fluorobenzoyl)amino]phenyl}-N^5-[2-methyl-1-(piperidin-1-yl)propan-2-yl]-1H-imidazole-4,5-dicarboxamide] has an IC50 (TNKS2) of 50 nM and an IC50 [1] of 820 nM.

Work on `CN1CCN(C(C)(C)CNC(=O)c2[nH]cnc2C(=O)Nc2ccc(NC(=O)c3ccc(F)cc3Cl)cc2)CC1` [Example 187, N^4-{4-[(2-chloro-4-fluorobenzoyl)amino]phenyl}-N^5-[2-methyl-2-(4-methylpiperazin-1-yl)propyl]-1H-imidazole-4,5-dicarboxamide] yielded an IC50 (TNKS2) of 100 nM and an IC50 [1] of 350 nM.

In the case of `O=C(Nc1ccc(NC(=O)c2nc[nH]c2C(=O)NCCCCN2CCCCC2)cc1)c1ccccc1Cl` [Example 189, N^4-{4-[(2-chlorobenzoyl)amino]phenyl}-N^5-[4-(piperidin-1-yl)butyl]-1H-imidazole-4,5-dicarboxamide], the IC50 (TNKS2) is reported as 260 nM and the IC50 [1] is reported as 890 nM.

`O=C(Nc1ccc(NC(=O)c2nc[nH]c2C(=O)NCCN2CCC2)cc1)c1ccc(F)cc1` [Example 199, N^5-[2-(azetidin-1-yl)ethyl]-N^4-{4-[(4-fluorobenzoyl)amino]phenyl}-1H-imidazole-4,5-dicarboxamide] was tested, and the IC50 (TNKS2) was 130 nM and the IC50 [1] was 1030 nM.

In the case of `O=C(Nc1ccc(NC(=O)c2nc[nH]c2C(=O)NCCCN2CCOCC2)cc1)c1ccccc1Cl` [Example 200, N^4-{4-[(2-chlorobenzoyl)amino]phenyl}-N^5-[3-(morpholin-4-yl)propyl]-1H-imidazole-4,5-dicarboxamide], the IC50 (TNKS2) is reported as 580 nM and the IC50 [1] is reported as 870 nM.

Work on `O=C(Nc1ccc(NC(=O)c2nc[nH]c2C(=O)NCCCN2CCOCC2)cc1)c1ccc(F)cc1` [Example 206, N^4-{4-[(4-fluorobenzoyl)amino]phenyl}-N^5-[3-(morpholin-4-yl)propyl]-1H-imidazole-4,5-dicarboxamide] yielded an IC50 (TNKS2) of 5300 nM and an IC50 [1] of 2100 nM.

In the case of `CC(C)(CN1CCOCC1)NC(=O)c1[nH]cnc1C(=O)Nc1ccc(NC(=O)c2ccc(F)cc2Cl)cc1` [Example 207, N^4-{4-[(2-chloro-4-fluorobenzoyl)amino]phenyl}-N^5-[2-methyl-1-(morpholin-4-yl)propan-2-yl]-1H-imidazole-4,5-dicarboxamide], the IC50 (TNKS2) is reported as 210 nM and the IC50 [1] is reported as 710 nM.

In the case of `CC1CCCN(CCNC(=O)c2[nH]cnc2C(=O)Nc2ccc(NC(=O)c3ccc(F)cc3Cl)cc2)C1` (centres unmarked) [Example 208, N^4-{4-[(2-chloro-4-fluorobenzoyl)amino]phenyl}-N^5-[2-(3-methylpiperidin-1-yl)ethyl]-1H-imidazole-4,5-dicarboxamide], the IC50 (TNKS2) is reported as 2 nM and the IC50 [1] is reported as 30 nM.

`CC(C)(CNC(=O)c1[nH]cnc1C(=O)Nc1ccc(NC(=O)c2ccc(F)cc2)cc1)N1CCCCC1` [Example 209, N^4-{4-[(4-fluorobenzoyl)amino]phenyl}-N^5-[2-methyl-2-(piperidin-1-yl)propyl]-1H-imidazole-4,5-dicarboxamide] was tested, and the IC50 (TNKS2) was 460 nM and the IC50 [1] was 850 nM.

`O=C(Nc1ccc(NC(=O)c2nc[nH]c2C(=O)NCCN2CCCCC2)cc1)c1ccc(F)cc1Br` [Example 216, N^4-{4-[(2-bromo-4-fluorobenzoyl)amino]phenyl}-N^5-[2-(piperidin-1-yl)ethyl]-1H-imidazole-4,5-dicarboxamide] showed an IC50 (TNKS2) of 2 nM and an IC50 [1] of 20 nM.

Work on `CN(C)CCNC(=O)c1[nH]cnc1C(=O)Nc1ccc(NC(=O)c2ccc(F)cc2Br)cc1` [Example 217, N^4-{4-[(2-bromo-4-fluorobenzoyl)amino]phenyl}-N^5-[2-(dimethylamino)ethyl]-1H-imidazole-4,5-dicarboxamide] yielded an IC50 (TNKS2) of 8 nM and an IC50 [1] of 120 nM.

`O=C(Nc1ccc(NC(=O)c2ocnc2C(=O)NCCN2CCC(F)(F)CC2)cc1)c1ccc(F)cc1Cl` [Example 218, N^5-{4-[(2-chloro-4-fluorobenzoyl)amino]phenyl}-N^4-[2-(4,4-difluoropiperidin-1-yl)ethyl]-1,3-oxazole-4,5-dicarboxamide] gave an IC50 (TNKS2) of 110 nM and an IC50 [1] of 1610 nM.

With `O=C(Nc1ccc(NC(=O)c2nc[nH]c2C(=O)NCCN2CCCC(F)C2)cc1)c1ccc(F)cc1Cl` (centres unmarked) [Example 226, N^4-{4-[(2-chloro-4-fluorobenzoyl)amino]phenyl}-N^5-[2-(3-fluoropiperidin-1-yl)ethyl]-1H-imidazole-4,5-dicarboxamide] the IC50 (TNKS2) was 2 nM and the IC50 [1] was 50 nM.

Compound `O=C(Nc1ccc(NC(=O)c2nc[nH]c2C(=O)NC2CCOC2)cc1)c1ccc(F)cc1Cl` (centres unmarked) [Example 236, N^4-{4-[(2-chloro-4-fluorobenzoyl)amino]phenyl}-N^5-(tetrahydrofuran-3-yl)-1H-imidazole-4,5-dicarboxamide] has an IC50 (TNKS2) of 60 nM and an IC50 [1] of 420 nM.

Compound `CNC(=O)c1nc[nH]c1C(=O)Nc1ccc(NC(=O)c2ccccc2O)cc1` [Example 239, N^5-{4-[(2-hydroxybenzoyl)amino]phenyl}-N^4-methyl-1H-imidazole-4,5-dicarboxamide] has an IC50 (TNKS2) greater than 10000 nM and an IC50 [1] of 46500 nM.

For `CNC(=O)c1nc[nH]c1C(=O)Nc1ccc(NC(=O)c2cc(OC)c(OC)cc2Cl)cc1` [Example 240, N^5-{4-[(2-chloro-4,5-dimethoxybenzoyl)amino]phenyl}-N^4-methyl-1H-imidazole-4,5-dicarboxamide], the IC50 (TNKS2) was 30 nM and the IC50 [1] was 80 nM.

`CNC(=O)c1nc[nH]c1C(=O)Nc1ccc(NC(=O)c2ccccc2C(F)F)cc1` [Example 241, N^5-(4-{[2-(difluoromethyl)benzoyl]amino}phenyl)-N^4-methyl-1H-imidazole-4,5-dicarboxamide] was tested, and the IC50 (TNKS2) was 1800 nM and the IC50 [1] was 1900 nM.

`CNC(=O)c1nc[nH]c1C(=O)Nc1ccc(NC(=O)c2cc(F)c(F)cc2Cl)cc1` [Example 242, N^5-{4-[(2-chloro-4,5-difluorobenzoyl)amino]phenyl}-N^4-methyl-1H-imidazole-4,5-dicarboxamide] gave an IC50 (TNKS2) of 30 nM and an IC50 [1] of 80 nM.
